Test results published in ChEMBL document CHEMBL3880410, “Novel oxabispidine compounds and their use in the treatment of cardiac arrhythmias” (2009).

tested on: Cavia porcellus; experiment: Anti-cardiac arrhythmia activity in anaesthetised guinea pig assessed as cumulative dose inducing prolongation of monophasic action potential duration by 10% from baseline administered as first dose infusion in 0.2 mL/kg into jugular vein catheter for 30 secs followed by next dosing after 5 mins for 6 to 10 consecutive times by electrophysiology based assay; assay type: functional

SMILES | D10 [mg/kg]
N#Cc1ccc(OCCCN2CC3CN(CCNS(=O)(=O)c4ccc5c(c4)CCO5)CC(C2)O3)cc1 | >5.5
N#Cc1ccc(OCCN2CC3CN(CCNS(=O)(=O)c4cccc(F)c4)CC(C2)O3)cc1 | >5.5
N#Cc1ccc(OCCN2CC3CN(CCCNS(=O)(=O)c4ccccc4)CC(C2)O3)cc1 | >5.5
N#Cc1ccc(OCCCN2CC3CN(CCNS(=O)(=O)c4ccccc4OC(F)(F)F)CC(C2)O3)cc1 | >5.5
Cc1oncc1S(=O)(=O)NCCN1CC2CN(CCCOc3ccc(C#N)cc3)CC(C1)O2 | >5.5
Cc1noc(C)c1CN1CC2CN(CCNS(=O)(=O)c3ccc(C#N)cc3)CC(C1)O2 | >5.5
CC(C)S(=O)(=O)NCCN1CC2CN(CCCOc3ccc(C#N)cc3)CC(C1)O2 | >5.5
N#Cc1ccc(OCCCN2CC3CN(CCNS(=O)(=O)c4cccc(F)c4)CC(C2)O3)cc1 | >5.5
N#Cc1ccc(S(=O)(=O)NCCN2CC3CN(Cc4ccccc4C#N)CC(C2)O3)cc1 | >5.5
N#Cc1ccc(OCCCN2CC3CN(CCNS(=O)(=O)Cc4ccccc4)CC(C2)O3)cc1 | >5.5
N#Cc1ccc(OCCN2CC3CN(CCNS(=O)(=O)Cc4ccc(C(F)(F)F)cc4)CC(C2)O3)cc1 | >5.5
Cn1cnc(S(=O)(=O)NCCN2CC3CN(CCCOc4ccc(C#N)cc4)CC(C2)O3)c1 | >5.5
N#Cc1ccc(S(=O)(=O)NCCN2CC3CN(CCc4ccc(F)cc4)CC(C2)O3)cc1 | >5.5
N#Cc1ccc(OCCN2CC3CN(CCNS(=O)(=O)Cc4cccc(Cl)c4)CC(C2)O3)cc1 | >5.5
N#Cc1ccc(S(=O)(=O)NCCN2CC3CN(CCOc4ccc(F)cc4)CC(C2)O3)cc1 | >5.5
N#Cc1ccc(S(=O)(=O)NCCN2CC3CN(Cc4c[nH]c5ccccc45)CC(C2)O3)cc1 | >5.5
N#Cc1ccc(OCCN2CC3CN(CCNS(=O)(=O)c4ccccc4)CC(C2)O3)cc1 | >5.5
CC(C)(C)NS(=O)(=O)CCCN1CC2CN(CCCOc3ccc(C#N)cc3)CC(C1)O2 | >5.5
N#Cc1ccc(S(=O)(=O)NCCN2CC3CN(Cc4c[nH]c5ccc(F)cc45)CC(C2)O3)cc1 | >5.5
N#Cc1ccc(S(=O)(=O)NCCN2CC3CN(CCc4cccc(F)c4)CC(C2)O3)cc1 | >5.5
CC(C)S(=O)(=O)NCCN1CC2CN(C[C@H](O)COc3ccc(C#N)cc3)CC(C1)O2 | >5.5

SMILES | D10 [mg/kg]
Cc1[nH]c2ccccc2c1CN1CC2CN(CCNS(=O)(=O)c3ccc(C#N)cc3)CC(C1)O2 | >5.5
N#Cc1ccc(OCCN2CC3CN(CCNS(=O)(=O)c4ccc(F)cc4)CC(C2)O3)cc1 | >5.5
Cc1nn(C)c(Cl)c1S(=O)(=O)NCCN1CC2CN(CCOc3ccc(C#N)cc3)CC(C1)O2 | >5.5
N#Cc1ccc(OCCCN2CC3CN(CCCNS(=O)(=O)c4ccccc4)CC(C2)O3)cc1 | >5.5
N#Cc1ccc(OCCCN2CC3CN(CCNS(=O)(=O)c4ccc(F)cc4F)CC(C2)O3)cc1 | >5.5
N#Cc1ccc(OCCN2CC3CN(CCNS(=O)(=O)c4ccccc4C#N)CC(C2)O3)cc1 | >5.5
N#Cc1ccc(CN2CC3CN(CCNS(=O)(=O)c4ccc(C#N)cc4)CC(C2)O3)cc1 | >5.5
N#Cc1ccc(S(=O)(=O)NCCN2CC3CN(CCCOc4ccc(F)c(F)c4)CC(C2)O3)cc1 | >5.5
N#Cc1ccc(S(=O)(=O)NCCN2CC3CN(CCOc4ccccc4F)CC(C2)O3)cc1 | >5.5
CS(=O)(=O)NCCN1CC2CN(CCOc3ccc(C#N)cc3)CC(C1)O2 | >5.5
N#Cc1ccc(OCCCN2CC3CN(CCNS(=O)(=O)c4ccc(F)cc4)CC(C2)O3)cc1 | >5.5
N#Cc1ccc(CN2CC3CN(CCNS(=O)(=O)Cc4ccccc4)CC(C2)O3)cc1 | >5.5
N#Cc1ccc(S(=O)(=O)NCCN2CC3CN(Cc4coc5ccccc45)CC(C2)O3)cc1 | >5.5
Cn1cnc(S(=O)(=O)NCCN2CC3CN(CCOc4ccc(C#N)cc4)CC(C2)O3)c1 | >5.5
Cc1cc(C)n(CCN2CC3CN(CCNS(=O)(=O)c4ccc(C#N)cc4)CC(C2)O3)n1 | >5.5
Cc1noc(C)c1S(=O)(=O)NCCN1CC2CN(CCCOc3ccc(C#N)cc3)CC(C1)O2 | >5.5
CCCCS(=O)(=O)NCCN1CC2CN(CCCOc3ccc(C#N)cc3)CC(C1)O2 | >5.5
N#Cc1ccc(S(=O)(=O)NCCN2CC3CN(CCc4ccc(F)c(F)c4)CC(C2)O3)cc1 | >5.5
N#Cc1ccc(OCCCN2CC3CN(CCNS(=O)(=O)Cc4ccc(C(F)(F)F)cc4)CC(C2)O3)cc1 | >5.5
Cc1nn(C)c(Cl)c1S(=O)(=O)NCCN1CC2CN(CCCOc3ccc(C#N)cc3)CC(C1)O2 | >5.5
COc1ccc(S(=O)(=O)NCCN2CC3CN(CCCOc4ccc(C#N)cc4)CC(C2)O3)cc1 | >5.5

SMILES | D10 [mg/kg]
N#Cc1ccc(OCCN2CC3CN(CCCNS(=O)(=O)c4ccc(F)cc4)CC(C2)O3)cc1 | >5.5
N#Cc1ccc(OCCCN2CC3CN(CCNS(=O)(=O)c4ccccc4)CC(C2)O3)cc1 | >5.5
N#Cc1ccc(OCCN2CC3CN(CCCNS(=O)(=O)c4ccc(F)cc4F)CC(C2)O3)cc1 | >5.5
N#Cc1ccc(OCCCN2CC3CN(CCNS(=O)(=O)C(F)(F)F)CC(C2)O3)cc1 | >5.5
N#Cc1ccc(OCCN2CC3CN(CCNS(=O)(=O)Cc4ccccc4)CC(C2)O3)cc1 | >5.5
N#Cc1ccc(S(=O)(=O)NCCN2CC3CN(CCCOc4ccc(F)cc4)CC(C2)O3)cc1 | >5.5
N#Cc1ccc(S(=O)(=O)NCCN2CC3CN(CCCOc4cc(F)ccc4F)CC(C2)O3)cc1 | >5.5
N#Cc1ccc(S(=O)(=O)NCCN2CC3CN(CCCOc4ccccc4F)CC(C2)O3)cc1 | >5.5
N#Cc1ccc(S(=O)(=O)NCCN2CC3CN(Cc4ccc(OC(F)F)cc4)CC(C2)O3)cc1 | >5.5
N#Cc1ccc(OCCCN2CC3CN(CCNS(=O)(=O)c4ccc(C#N)cc4)CC(C2)O3)cc1 | >5.5
CS(=O)(=O)NCCN1CC2CN(CCCOc3ccc(C#N)cc3)CC(C1)O2 | >5.5
N#Cc1ccc(OCCN2CC3CN(CCNS(=O)(=O)c4ccc5c(c4)CCO5)CC(C2)O3)cc1 | >5.5
N#Cc1ccc(OCCN2CC3CN(CCNS(=O)(=O)c4ccc(C#N)cc4)CC(C2)O3)cc1 | >5.5
O=S(=O)(NCCN1CC2CN(Cc3ccccc3)CC(C1)O2)c1ccc(F)cc1 | >5.5
CC(C)(C)OC(=O)NCCN1CC2CN(CCNS(=O)(=O)c3ccc(F)cc3)CC(C1)O2 | >5.5
N#Cc1ccc(OCCN2CC3CN(CCCNS(=O)(=O)Cc4ccccc4)CC(C2)O3)cc1 | >5.5
N#Cc1ccc(OCCCN2CC3CN(CCNS(=O)(=O)Cc4cccc(Cl)c4)CC(C2)O3)cc1 | >5.5
N#Cc1ccc(S(=O)(=O)NCCN2CC3CN(CCOc4ccc(C#N)cc4F)CC(C2)O3)cc1 | >5.5
N#Cc1ccc(S(=O)(=O)NCCN2CC3CN(Cc4ccc(F)cc4)CC(C2)O3)cc1 | >5.5
COc1ccc(S(=O)(=O)NCCN2CC3CN(CCOc4ccc(C#N)cc4)CC(C2)O3)cc1 | >5.5
